Measurements taken from patent US8877731B2, “Azido nucleosides and nucleotide analogs” (Alios Biopharma, Inc., priority 2010, dated 2014).
Like-named read-outs stand apart in the source and are kept apart here.

Legend:
Assay type in all cases: cell-based
RSV Long strain = assay: RSV CPE reduction assay
Method: CPE reduction assays were performed as described by Sidwell and Huffman et al., Appl Microbiol. (1971) 22(5):797-801 with slight modifications. HEp-2 cells (ATCC) at a concentration of 6000 cell/well were infected with RSV Long strain (ATCC) at a multiplicity of infection (m.o.i.) of 0.01, and each of the test compounds were provided to duplicate wells at final concentrations starting from 100 μM using ⅓ stepwise dilutions. For each compound, two wells were set aside as uninfected, untreated cell controls (CC), and two wells per test compound received virus only as a control for virus replication (VC). […] At the end of the incubation, 20 μl of cell counting kit-8 reagent (CCK-8, Dojindo Molecular Technologies, Inc.) were added to each well. After 4 hour incubation, the absorbance was measured in each well according to manufacturer's instruction, and the 50% effective concentration (EC50) was calculated by using regression analysis, based on the mean O.D. at each concentration of compound.
(§1) Compounds of Formula (I) and Formula (II) are active in the assay as noted in Tables 2 and 3, where ‘A’ indicates an EC50<1 μM, ‘B’ indicates an EC50 of >1 μM and <10 μM, ‘C’ indicates an EC50>10 μM and <100 μM, and ‘D’ indicates an EC50>100 μM.

RSV A2 = assay: RSV RT-PCR based assay
Method: RT-PCR based assays were performed in HEp-2 cells (ATCC: CCL-23) at a concentration of 20000 cell/well were plated in 96 well plates and incubated overnight. Each of the test compounds were ⅓ serially diluted and dosed to HEp-2 cells in duplicates. The highest final concentration for each compound was 100 uM. After 24 hour compound pre-incubation, RSV A2 (ATCC: VR-1540) at MOI of 0.1 was added. Two wells per compound were set aside as uninfected, untreated cell controls (CC), and four wells per test compound received virus only as a control for virus replication (VC). The assay was stopped 4 days after virus infection and conditioned media was removed for viral RNA isolation. The quantities of the RSV virus were measured by real-time PCR using a set of RSV specific primers and probe. The data was analyzed with Prism software with EC50 defined as drug concentration that reduced the viral load 50% from the viral control (VC).
as §1

Influenza A/WSN/33 virus = assay: Influenza antiviral assay (real-time PCR); conditions: A549 cells, 24 hour pre-incubation, 72 hours, read-out: Percent Inhibition
[1] = human respiratory syncytial virus, 144 h, CPE assay, HEp-2 cells infected with RSV Long strain, m.o.i. 0.01, 6 days, CCK-8 readout, read-out: EC50
[2] = human respiratory syncytial virus, RT-PCR assay, HEp-2 cells, 24 hour compound pre-incubation, RSV A2 at MOI 0.1, 4 days after infection, viral load, read-out: EC50
[3] = human respiratory syncytial virus, HEp-2, 144 h
[4] = human respiratory syncytial virus, HEp-2

Compound	EC50 (RSV Long strain; [1]) [µM]	EC50 (RSV A2; [2]) [µM]	inhibition at 30 µM (Influenza A/WSN/33 virus) [%]	further results
[N-]=[N+]=N[C@]1(CO)O[C@@H](n2ccc(N)nc2=O)[C@H](F)[C@@H]1O [Compound 2, 4′-azido-2′-deoxy-2′-fluorocytidine]	< 1	< 1	99.8	–
[N-]=[N+]=N[C@]1(CO)O[C@@H](n2cnc3c(=O)[nH]c(N)nc32)[C@H](O)[C@@H]1O [Compound 10, 4′-azidoguanosine]	< 1	< 1	83.3	–
[N-]=[N+]=N[C@]1(CO)O[C@@H](n2cnc3c(=O)[nH]c(N)nc32)[C@H](F)[C@@H]1O [Compound 27, 4′-azido-2′-deoxy-2′-fluoroguanosine]	< 1	< 1	91	–
[N-]=[N+]=N[C@]1(CO)O[C@@H](n2cnc3c(N)ncnc32)[C@H](F)[C@@H]1O [Compound 28, 4′-azido-2′-deoxy-2′-fluoroadenosine]	> 100	> 100	94.6	–
[N-]=[N+]=N[C@]1(CO)O[C@@H](n2cnc3c(=O)[nH]c(N)nc32)C(F)(F)[C@@H]1O [Compound 30, 4′-azido-2′-deoxy-2′,2′-difluoroguanosine]	–	> 100	99.9	–
C[C@]1(F)[C@H](n2ccc(N)nc2=O)O[C@@](CO)(N=[N+]=[N-])[C@H]1O [Compound 38, 4′-azido-2′-deoxy-2′-α-fluoro-2′-β-methylcytidine]	> 100	> 100	–	–
CC(C)OC(=O)[C@H](C)NP(=O)(N[C@@H](C)C(=O)OC(C)C)OC[C@@]1(N=[N+]=[N-])O[C@@H](n2ccc(=O)[nH]c2=O)C(F)(F)[C@@H]1O [Compound 39, 4′-azido-2′-deoxy-2′-difluorouridine 5′-(N,N-bis((S)-isopropoxycarbonyleth-1-yl))phosphordiamidate]	> 100	> 100	–	–
CC(C)OC(=O)[C@H](C)NP(=O)(N[C@@H](C)C(=O)OC(C)C)OC[C@@]1(N=[N+]=[N-])O[C@@H](n2ccc(=O)[nH]c2=O)[C@H](F)[C@@H]1O [Compound 40]	> 100	> 100	–	–
COP1(=S)OC[C@@]2(N=[N+]=[N-])O[C@@H](n3ccc(=O)[nH]c3=O)[C@H](F)[C@@H]2O1 (some centres unmarked) [Compound 41, 4′-azido-2′-deoxy-2′-fluorouridine 3′,5′-cyclic thiophosphoric acid methyl ester]	–	–	–	EC50 (RSV Long strain; [3]): > 100 µM; EC50 (RSV A2; [4]): > 100 µM
[N-]=[N+]=N[C@]1(CO)O[C@@H](n2cnc(C(N)=O)n2)[C@H](O)[C@@H]1O [Compound 43, 4′-azidoribavirin]	10 to 100	10 to 100	–	–
CC(C)OC(=O)[C@H](C)NP(=O)(N[C@@H](C)C(=O)OC(C)C)OC[C@@]1(N=[N+]=[N-])O[C@@H](n2ccc(=O)[nH]c2=O)[C@H](O)[C@@H]1O [Compound 44, 4′-azidouridine 5′-(N,N′-bis((S)-1-(isopropoxycarbonyl)ethyl))phosphorodiamidate]	> 100	> 100	–	–
CC(C)OP1(=S)OC[C@@]2(N=[N+]=[N-])O[C@@H](n3ccc(=O)[nH]c3=O)[C@H](F)[C@@H]2O1 (some centres unmarked) [Compound 45, 4′-azido-2′-deoxy-2′-fluorouridine 3′,5′-cyclic thiophosphoric acid isopropyl ester]	–	–	–	EC50 (RSV Long strain; [3]): > 100 µM; EC50 (RSV A2; [4]): > 100 µM
CC(C)OP1(=S)OC[C@@]2(N=[N+]=[N-])O[C@@H](n3ccc(N)nc3=O)[C@H](F)[C@@H]2O1 (some centres unmarked) [Compound 46, 4′-azido-2′-deoxy-2′-fluorocytidine 3′,5′-cyclic thiophosphoric acid isopropyl ester]	–	–	–	EC50 (RSV Long strain; [3]): > 100 µM; EC50 (RSV A2; [4]): > 100 µM
[N-]=[N+]=N[C@]1(CO)O[C@@H](n2cnc3c(=O)[nH]c(N)nc32)[C@@H](O)[C@@H]1O [Compound 47, 4′-azidoarabinoguanosine]	> 100	> 100	–	–
COc1nc(N)nc2c1ncn2[C@@H]1O[C@@](CO)(N=[N+]=[N-])[C@@H](O)[C@H]1F [Compound 48, 2-amino-9-(4-aido-2-deoxy-2-fluoro-1-ribofuranosyl)-6-methoxypurine]	1 to 10	< 1	–	–
COc1nc(N)nc2c1ncn2C1O[C@@](CO)(N=[N+]=[N-])[C@@H](O)[C@H]1F (some centres unmarked) [Compound 49, 2-amino-9-(4-aido-2-deoxy-2-fluoro-1-ribofuranosyl)-6-methoxypurine]	–	–	–	EC50 (RSV Long strain; CPE assay, HEp-2 cells infected with RSV Long strain, m.o.i. 0.01, 6 days, CCK-8 readout, read-out: EC50): > 100 µM; EC50 (RSV A2; RT-PCR assay, HEp-2 cells, 24 hour compound pre-incubation, RSV A2 at MOI 0.1, 4 days after infection, viral load, read-out: EC50): > 100 µM
C[C@@]1(n2ccc(N)nc2=O)O[C@@](CO)(N=[N+]=[N-])[C@@H](O)[C@H]1O [Compound 50, 4′-azido-1′-methylcytidine]	> 100	> 100	90.9	–
C[C@]1(F)[C@H](n2ccc(=O)[nH]c2=O)O[C@@](CO)(N=[N+]=[N-])[C@H]1O [Compound 51, 4′-azido-2′-deoxy-2′-α-fluoro-2′-β-methyluridine]	> 100	> 100	–	–
